{
  "source": "patent US20090029983A1",
  "about": "“NOVEL HETEROCYCLIC COMPOUNDS HAVING ANTI-HBV ACTIVITY” (priority 2005, published 2009)",
  "data": [
    {"system": "HBV", "assay": "HBV screening assay (viral DNA in baculovirus-HBV transduced HepG2 cells)", "type": "cell-based", "conditions": "Hepatitis B virus, HepG2, 72 h, read-out: EC50 (antiviral activity), HBV-transduced HepG2 cells, three days with compound, viral DNA by ELISA", "description": "HepG2 cells were transduced using a baculovirus to deliver the HBV genome essentially as previously described (Delaney et al. in Hepatology 1998; 28: 1134-1146). Transduced cells were cultured in supplemented EMEM media with 10% fetal bovine serum in a 5% CO2 incubator at 37° C. for three days in the presence of test compounds. The cells were lysed in a buffer containing 0.5% NP-40 and […] proteinase K. A solid-phase hybridization was performed to capture the viral DNA and to label the target DNA with Digoxigenin-labeled DNA probes. The viral DNA was detected by ELISA, using horseradish peroxidase-conjugated anti-digoxigenin antibodies.\nThe EC50 values were determined using ExcelFit software from the inhibition values of a titration curve for each compound. For CC50 determinations, the same titration of compounds was co-cultured with non-transduced HepG2 for three days under the conditions described above. The Promega CellTiter 96 Aqueous One Solution Cell Proliferation Assay was used to measure cell proliferation/viability. The CC50 values were determined using ExcelFit software from the inhibition values of the titration curve for each compound.", "units": {"EC50": "µM"}, "values": [
      {"smiles": "CC(=O)N1CCc2nc3sc(C(N)=O)c(N)c3c(-c3cccs3)c2C1", "note": "[Compound 34, 6-Acetyl-3-amino-4-thiophen-2-yl-5,6,7,8-tetrahydro-thieno[2,3-b][1,6]naphthyridine-2-carboxylic acid amide]", "EC50": "> 10"},
      {"smiles": "CCOC1CCc2c1nc1sc(C(N)=O)c(N)c1c2-c1cccs1", "note": "(stereo not drawn) [Compound 35, 3-Amino-7-ethoxy-4-thiophen-2-yl-6,7-dihydro-5H-cyclopenta[b]thieno[3,2-e]pyridine-2-carboxylic acid amide]", "EC50": "< 1"},
      {"smiles": "NC(=O)c1sc2nc3c(c(-c4cccs4)c2c1N)CCC3CC(=O)O", "note": "(stereo not drawn) [Compound 36, 3-Amino-7-carboxymethyl-4-thiophen-2-yl-6,7-dihydro-5H-cyclopenta[b]thieno[3,2-e]pyridine-2-carboxylic acid amide]", "EC50": "> 10"},
      {"smiles": "CC1CCc2c1nc1sc(C(N)=O)c(N)c1c2-c1cccs1", "note": "(stereo not drawn) [Compound 37, 3-Amino-7-methyl-4-thiophen-2-yl-6,7-dihydro-5H-cyclopenta[b]thieno[3,2-e]pyridine-2-carboxylic acid amide]", "EC50": "< 1"},
      {"smiles": "NC(=O)c1sc2nc3c(c(-c4cccs4)c2c1N)CCC3CC(=O)N1CCOCC1", "note": "(stereo not drawn) [Compound 38, 3-Amino-7-(2-morpholin-4-yl-2-oxo-ethyl)-4-thiophen-2-yl-6,7-dihydro-5H-cyclopenta[b]thieno[3,2-e]pyridine-2-carboxylic acid amide]", "EC50": "> 10"},
      {"smiles": "NC(=O)c1sc2nc3c(c(-c4cccs4)c2c1N)CCC3CC(=O)NCC(O)c1ccccc1", "note": "(stereo not drawn) [Compound 39, 3-Amino-7-[(2-hydroxy-2-phenyl-ethylcarbamoyl)-methyl]-4-thiophen-2-yl-6,7-dihydro-5H-cyclopenta[b]thieno[3,2-e]pyridine-2-carboxylic acid amide]", "EC50": "> 10"},
      {"smiles": "COC(=O)CC1CCc2c1nc1sc(C(N)=O)c(N)c1c2-c1cccs1", "note": "(stereo not drawn) [Compound 40, 3-Amino-7-carbomethoxymethyl-4-thiophen-2-yl-6,7-dihydro-5H-cyclopenta[b]thieno[3,2-e]pyridine-2-carboxylic acid amide]", "EC50": "> 10"},
      {"smiles": "CCOC(=O)CC1CCc2c1nc1sc(C(N)=O)c(N)c1c2-c1cccs1", "note": "(stereo not drawn) [Compound 41, 3-Amino-7-carbethoxymethyl-4-thiophen-2-yl-6,7-dihydro-5H-cyclopenta[b]thieno[3,2-e]pyridine-2-carboxylic acid amide]", "EC50": "> 10"},
      {"smiles": "CNC(=O)CC1CCc2c1nc1sc(C(N)=O)c(N)c1c2-c1cccs1", "note": "(stereo not drawn) [Compound 42, 3-Amino-7-methylcarbamoylmethyl-4-thiophen-2-yl-6,7-dihydro-5H-cyclopenta[b]thieno[3,2-e]pyridine-2-carboxylic acid amide]", "EC50": "1 to 10"},
      {"smiles": "Cc1ccc(CNC(=O)CC2CCc3c2nc2sc(C(N)=O)c(N)c2c3-c2cccs2)o1", "note": "(stereo not drawn) [Compound 43, 3-Amino-7-{[(5-methyl-furan-2-ylmethyl)-carbamoyl]-methyl}-4-thiophen-2-yl-6,7-dihydro-5H-cyclopenta[b]thieno[3,2-e]pyridine-2-carboxylic acid amide]", "EC50": "> 10"},
      {"smiles": "COc1ccccc1CNC(=O)CC1CCc2c1nc1sc(C(N)=O)c(N)c1c2-c1cccs1", "note": "(stereo not drawn) [Compound 44, 3-Amino-7-[(2-methoxy-benzylcarbamoyl)-methyl]-4-thiophen-2-yl-6,7-dihydro-5H-cyclopenta[b]thieno[3,2-e]pyridine-2-carboxylic acid amide]", "EC50": "> 10"},
      {"smiles": "NC(=O)c1sc2nc3c(c(-c4cccs4)c2c1N)CCC3CC(=O)NCc1ccccn1", "note": "(stereo not drawn) [Compound 45, 3-Amino-7-{[(pyridin-2-ylmethyl)-carbamoyl]-methyl}-4-thiophen-2-yl-6,7-dihydro-5H-cyclopenta[b]thieno[3,2-e]pyridine-2-carboxylic acid amide]", "EC50": "> 10"},
      {"smiles": "NC(=O)c1sc2nc3c(c(-c4cccs4)c2c1N)CCC3CC(=O)NCCc1ccccn1", "note": "(stereo not drawn) [Compound 46, 3-Amino-7-[(2-pyridin-2-yl-ethylcarbamoyl)-methyl]-4-thiophen-2-yl-6,7-dihydro-5H-cyclopenta[b]thieno[3,2-e]pyridine-2-carboxylic acid amide]", "EC50": "> 10"},
      {"smiles": "NC(=O)c1sc2nc3c(c(-c4cccs4)c2c1N)CCC3CC(=O)NCc1ccc(C(F)(F)F)cc1", "note": "(stereo not drawn) [Compound 47, 3-Amino-4-thiophen-2-yl-7-[(4-trifluoromethyl-benzylcarbamoyl)-methyl]-6,7-dihydro-5H-cyclopenta[b]thieno[3,2-e]pyridine-2-carboxylic acid amide]", "EC50": "> 10"},
      {"smiles": "CC(C)CCNC(=O)CC1CCc2c1nc1sc(C(N)=O)c(N)c1c2-c1cccs1", "note": "(stereo not drawn) [Compound 48, 3-Amino-7-[(3-methyl-butylcarbamoyl)-methyl]-4-thiophen-2-yl-6,7-dihydro-5H-cyclopenta[b]thieno[3,2-e]pyridine-2-carboxylic acid amide]", "EC50": "> 10"},
      {"smiles": "CN(C)C(=O)CC1CCc2c1nc1sc(C(N)=O)c(N)c1c2-c1cccs1", "note": "(stereo not drawn) [Compound 49, 3-Amino-7-dimethylcarbamoylmethyl-4-thiophen-2-yl-6,7-dihydro-5H-cyclopenta[b]thieno[3,2-e]pyridine-2-carboxylic acid amide]", "EC50": "> 10"},
      {"smiles": "NC(=O)c1sc2nc3c(c(-c4cccs4)c2c1N)CCC3CC(=O)NC1CCC1", "note": "(stereo not drawn) [Compound 50, 3-Amino-7-cyclobutylcarbamoylmethyl-4-thiophen-2-yl-6,7-dihydro-5H-cyclopenta[b]thieno[3,2-e]pyridine-2-carboxylic acid amide]", "EC50": "> 10"},
      {"smiles": "NC(=O)c1sc2nc3c(c(-c4cccs4)c2c1N)CCC3CC(=O)NC1CCCCC1", "note": "(stereo not drawn) [Compound 51, 3-Amino-7-cyclohexylcarbamoylmethyl-4-thiophen-2-yl-6,7-dihydro-5H-cyclopenta[b]thieno[3,2-e]pyridine-2-carboxylic acid amide]", "EC50": "> 10"},
      {"smiles": "NC(=O)c1sc2nc3c(c(-c4cccs4)c2c1N)CCC3CC(=O)N1CCC(O)CC1", "note": "(stereo not drawn) [Compound 52, 3-Amino-7-[2-(4-hydroxy-piperidin-1-yl)-2-oxo-ethyl]-4-thiophen-2-yl-6,7-dihydro-5H-cyclopenta[b]thieno[3,2-e]pyridine-2-carboxylic acid amide]", "EC50": "> 10"},
      {"smiles": "NC(=O)c1sc2nc3c(c(-c4cccs4)c2c1N)CCC3CC(=O)N1CCN(c2ccccn2)CC1", "note": "(stereo not drawn) [Compound 53, 3-Amino-7-[2-oxo-2-(4-pyridin-2-yl-piperazin-1-yl)-ethyl]-4-thiophen-2-yl-6,7-dihydro-5H-cyclopenta[b]thieno[3,2-e]pyridine-2-carboxylic acid amide]", "EC50": "> 10"},
      {"smiles": "CCOC(=O)N1CCC(NC(=O)CC2CCc3c2nc2sc(C(N)=O)c(N)c2c3-c2cccs2)CC1", "note": "(stereo not drawn) [Compound 54, 4-[2-(3-Amino-2-carbamoyl-4-thiophen-2-yl-6,7-dihydro-5H-cyclopenta[b]thiano[3,2-e]pyridin-7-yl)-acetylamino]-piperidine-1-carboxylic acid ethyl ester]", "EC50": "> 10"},
      {"smiles": "CN1CCCC1CCNC(=O)CC1CCc2c1nc1sc(C(N)=O)c(N)c1c2-c1cccs1", "note": "(stereo not drawn) [Compound 55, 3-Amino-7-{[2-(1-methyl-pyrrolidin-2-yl)-ethylcarbamoyl]-methyl}-4-thiophen-2-yl-6,7-dihydro-5H-cyclopenta[b]thieno[3,2-e]pyridine-2-carboxylic acid amide]", "EC50": "> 10"},
      {"smiles": "CCOC(=O)C1CCN(C(=O)CC2CCc3c2nc2sc(C(N)=O)c(N)c2c3-c2cccs2)CC1", "note": "(stereo not drawn) [Compound 56, 1-[2-(3-Amino-2-carbamoyl-4-thiophen-2-yl-6,7-dihydro-5H-cyclopenta[b]thieno[3,2-e]pyridin-7-yl)-acetyl]-piperidine-4-carboxylic acid ethyl ester]", "EC50": "> 10"},
      {"smiles": "NC(=O)c1sc2nc3c(c(-c4cccs4)c2c1N)CCC3CC(=O)NCCCN1CCOCC1", "note": "(stereo not drawn) [Compound 57, 3-Amino-7-[(3-morpholin-4-yl-propylcarbamoyl)-methyl]-4-thiophen-2-yl-6,7-dihydro-5H-cyclopenta[b]thiano[3,2-e]pyridine-2-carboxylic acid amide]", "EC50": "> 10"},
      {"smiles": "CC1CCCCN1CCCNC(=O)CC1CCc2c1nc1sc(C(N)=O)c(N)c1c2-c1cccs1", "note": "(stereo not drawn) [Compound 58, 3-Amino-7-{[3-(2-methyl-piperidin-1-yl)-propylcarbamoyl]-methyl}-4-thiophen-2-yl-6,7-dihydro-5H-cyclopenta[b]thieno[3,2-e]pyridine-2-carboxylic acid amide]", "EC50": "> 10"},
      {"smiles": "CCCCCCC1CCc2c1nc1sc(C(N)=O)c(N)c1c2-c1cccs1", "note": "(stereo not drawn) [Compound 59, 3-Amino-7-hexyl-4-thiophen-2-6,7-dihydro-5H-cyclopenta[b]thieno[3,2-e]pyridine-2-carboxylic acid amide]", "EC50": "> 10"},
      {"smiles": "CCCCCCCC1CCc2c1nc1sc(C(N)=O)c(N)c1c2-c1cccs1", "note": "(stereo not drawn) [Compound 60, 3-Amino-7-heptyl-4-thiophen-2-yl-6,7-dihydro-5H-cyclopenta[b]thieno[3,2-e]pyridine-2-carboxylic acid amide]", "EC50": "> 10"},
      {"smiles": "NC(=O)c1sc2nc3c(c(-c4cccs4)c2c1N)CCC3C1CCCC1", "note": "(stereo not drawn) [Compound 61, 3-Amino-7-cyclopentyl-4-thiophen-2-yl-6,7-dihydro-5H-cyclopenta[b]thieno[3,2-e]pyridine-2-carboxylic acid amide]", "EC50": "1 to 10"},
      {"smiles": "N#CCCC1CCCc2c1nc1sc(C(N)=O)c(N)c1c2-c1cccs1", "note": "(stereo not drawn) [Compound 62, 3-Amino-8-(2-cyano-ethyl)-4-thiophen-2-yl-5,6,7,8-tetrahydro-thieno[2,3-b]quinoline-2-carboxylic acid amide]", "EC50": "> 10"},
      {"smiles": "CC(C)CC1CCCc2c1nc1sc(C(N)=O)c(N)c1c2-c1cccs1", "note": "(stereo not drawn) [Compound 63, 3-Amino-8-isobutyl-4-thiophen-2-yl-5,6,7,8-tetrahydro-thieno[2,3-b]quinoline-2-carboxylic acid amide]", "EC50": "1 to 10"}
    ]}
  ]
}
